Read-outs that look alike come from different tables or passages of the source.
Tests used:
[1] = target: SARS-CoV-2 3CL protease (Severe acute respiratory syndrome coronavirus 2, UniProt P0DTD1); assay: biochemical; settings: 50% SARS-CoV-2 3CL protease inhibitory concentration, read-out: IC50
[2] = system: SARS-CoV-2; assay: microbe, parasite or virus in culture; type: cell-based; settings: Severe acute respiratory syndrome coronavirus 2, VeroE6/TMPRSS2, 72 h, 50% SARS-CoV-2 infected cell death inhibitory concentration, VeroE6/TMPRSS2 cells, 3 days culture

| SMILES | IC50 ([1]; given as class symbols) [nM] | EC50 ([2]; class symbols) [nM] | IC50 ([1]; RapidFire MS) [nM] | EC50 ([2]; CellTiter-Glo 2.0) [nM] |
| --- | --- | --- | --- | --- |
| Cc1cncc(-n2c(=O)nc(Nc3cc4cn(C)nc4cc3Cl)n(Cc3cc(F)c(F)cc3Cc3cnn(C)c3)c2=O)c1 [II-0018] | < 100 | 1000 to 10000 | – | – |
| CNc1nc2cc(Cl)c(Nc3nc(=O)n(Cc4ncccn4)c(=O)n3Cc3cc(F)c(F)c(Cl)c3)cc2s1 [II-0297] | < 100 | 1000 to 10000 | – | – |
| COc1ccc(Oc2nc(=O)n(Cc3ccc[nH]c3=O)c(=O)n2Cc2cc(F)c(F)c(F)c2)c(C)c1 [Compound I-0128] | – | < 1000 | 9700 | – |
| Cc1cncc(-n2c(=O)nc(Nc3cc4c(cc3Cl)nc(C)n4C)n(Cc3cc(F)c(F)c(F)c3)c2=O)c1 [II-0356] | < 100 | 1000 to 10000 | – | – |
| Cn1cnc(Cn2c(=O)nc(Nc3cc4cn(CCO)nc4cc3Cl)n(Cc3cc(F)c(F)c(Cl)c3)c2=O)n1 [II-0307] | < 100 | 1000 to 10000 | – | – |
| COc1ccc(Nc2nc(=O)n(Cc3ccc[nH]c3=O)c(=O)n2Cc2ccc(Cl)s2)cc1 [Compound I-0321] | 1000 to 10000 | < 1000 | 2100 | – |
| Cn1cc2cc(Nc3nc(=O)n(Cc4nccc(N)n4)c(=O)n3Cc3cc(F)c(F)cc3F)c(Cl)cc2n1 [II-0246] | < 100 | 1000 to 10000 | – | – |
| CCn1cc2cc(Nc3nc(=O)n(-c4cncc(Cl)c4)c(=O)n3Cc3cc(C#N)c(F)cn3)c(Cl)cc2n1 [II-0127] | < 100 | 1000 to 10000 | – | – |
| Cn1cnc(Cn2c(=O)nc(Nc3cc4c(cc3Cl)OCC4)n(Cc3cc(F)c(F)c(F)c3F)c2=O)n1 [II-0017] | < 100 | < 1000 | – | – |
| COc1ccc(Nc2nc(=O)n(-c3cc(C)cnn3)c(=O)n2Cc2cc(F)c(F)c(F)c2)cc1 [II-0392] | – | – | 1000 | 20800 |
| CNc1nc2cc(F)c(Nc3nc(=O)n(-c4cncc(C)c4)c(=O)n3Cc3cc(C#N)ccc3Cl)cc2s1 [II-0292] | – | – | 3.9 | 434 |
| Cc1cncc(-n2c(=O)nc(Nc3cc4c(cc3Cl)OCC4)n(Cc3cc(F)c(F)c(C#N)c3)c2=O)c1 [II-0131] | < 100 | < 1000 | – | – |
| Cc1cncc(-n2c(=O)nc(Nc3cc4c(cc3Cl)OC(C)C4)n(Cc3ccc(F)c(C#N)c3)c2=O)c1 (centres unmarked) [II-0114] | < 100 | < 1000 | – | – |
| Cc1cncc(-n2c(=O)nc(Nc3cc4c(cc3Cl)nc(C)n4C)n(Cc3ccc(F)c(C#N)c3)c2=O)c1 [II-0350] | < 100 | 1000 to 10000 | – | – |
| Cn1cc2cc(Nc3nc(=O)n(-c4cncc(C(F)(F)F)c4)c(=O)n3Cc3cc(F)c(F)c(F)c3)c(Cl)cc2n1 [II-0273] | – | – | 360 | 6600 |
| Cc1cncc(-n2c(=O)nc(Nc3ccc4nn(CC(F)F)cc4c3)n(Cc3cc(C#N)ccc3C)c2=O)c1 [II-0521] | – | – | 3.4 | 220 |
| O=c1[nH]c2sccc2cc1Cn1c(=O)nc(Nc2cc3cn(CCO)nc3cc2Cl)n(Cc2cc(F)c(F)c(F)c2)c1=O [II-0031] | < 100 | 1000 to 10000 | – | – |
| Cn1cnc(Cn2c(=O)nc(Nc3cc4cn(CC(F)F)nc4cc3F)n(Cc3cc(Cl)c(F)cc3F)c2=O)n1 [II-0459] | < 100 | 1000 to 10000 | – | – |
| Cn1cc2cc(Nc3nc(=O)n(-c4cncc5ccccc45)c(=O)n3Cc3cc(F)c(F)c(F)c3)c(Cl)cc2n1 [Compound I-0378] | < 100 | < 1000 | – | – |
| Cc1cncc(-n2c(=O)nc(Nc3cc4cn(C)nc4cc3Cl)n(Cc3cc(C#N)c(F)cc3CC(C)C)c2=O)c1 [II-0023] | < 100 | < 1000 | – | – |
| COc1ccc(Nc2nc(=O)n(Cc3cc(C(F)(F)F)c[nH]c3=O)c(=O)n2Cc2cc(F)c(F)c(F)c2)cc1 [Compound I-0307] | 100 to 1000 | < 1000 | 440 | – |
| O=C(O)c1ccc(Nc2nc(=O)n(Cc3ccc[nH]c3=O)c(=O)n2Cc2cc(F)c(F)c(F)c2)cc1 [Compound I-0035] | 1000 to 10000 | < 1000 | 3500 | – |
| CC[C@@H](Nc1nc(=O)n(Cc2ccc[nH]c2=O)c(=O)n1Cc1cc(F)c(F)c(F)c1)C(F)(F)F [II-0370] | – | – | 520 | 28900 |
| Cn1cc2cc(Nc3nc(=O)n(Cc4cc(Cl)c[nH]c4=O)c(=O)n3Cc3cc(F)c(F)c(F)c3)c(Cl)cc2n1 [Compound I-0077] | < 100 | < 1000 | – | – |
| Cc1nc2cc(Cn3c(=O)nc(Nc4ccc5c(c4)CCO5)n(Cc4cc(F)c(F)c(F)c4)c3=O)c(=O)[nH]c2s1 [II-0341] | < 100 | 1000 to 10000 | – | – |
| Cc1cncc(-n2c(=O)nc(Nc3ccc4c(c3)CCCO4)n(Cc3ccc(F)c(C#N)c3)c2=O)c1 [II-0166] | < 100 | < 1000 | – | – |
| Cc1cncc(-n2c(=O)nc(Nc3cc4cn(C)nc4cc3Cl)n(Cc3ccc(F)c(Br)c3)c2=O)c1 [II-0597] | < 100 | < 1000 | – | – |
| Cn1cnc(Cn2c(=O)nc(Nc3cc4cn(CC(F)F)nc4cc3F)n(Cc3cc(F)c(F)c(Cl)c3)c2=O)n1 [II-0466] | < 100 | 1000 to 10000 | – | – |
